Source: a melting point compilation (Tetko et al.; mined from patent text by program, amines drawn as free bases though some values may be those of a salt)

| SMILES | melting point [°C] |
| --- | --- |
| COc1ccc(-c2nc3n(c2-c2ccc(OC)cc2)Cc2ccccc2C3)cc1 | 170 to 172 |
| CCCCc1cccc2[nH]c(C(=O)O)cc(=O)c12 | 269 to 270 |
| Cc1ccc(NS(=O)(=O)c2ccc(Br)cc2)c(F)c1 | 111 |
| COCOc1ccc(OC(C)C(=O)Nc2ccc(OC(F)(F)F)cc2)cc1 (stereo unspecified) | 115 to 116 |
| Nc1c(C#Cc2ccccc2)cnnc1C1CN2CCNC1CC2 (stereo unspecified) | 182 to 183 |
| CCn1cc(C(=O)O)c(=O)c2cc(F)c(N3CCSCC3)nc21 | 241 to 243 |
| Cc1ccc(C2c3c(C)c(N4C(=O)c5ccccc5C4=O)c(C)c(C)c3OC2(C)C)cc1 (stereo unspecified) | 222 to 224 |
| Cc1nc2nc(C(=O)NO)cc(S)n2n1 | 178 to 179 |
| CCOc1cc2c(cc1OC)C(c1ccc(C(=O)N(C(C)C)C(C)C)cc1)=N[C@@H]1CCSC[C@H]21 | 84 to 89 |
| N#Cc1ccc([C@H]2CC[C@H](C=O)CC2)cc1 | 57.1 |
| Cc1ccnc2c1nc(C)n2-c1ccccc1 | 117 to 119 |
| COC(=O)c1ccc(-c2ccc(-c3ccccc3)c(-c3ccc4c(c3)C(C)(C)CCC4(C)C)c2)cc1C | 130 to 132 |
| COc1cc2ncc(OC3CC4CC3C(O)C4O)nc2cc1OC (stereo unspecified) | 85 to 88 |
| CCOC(=O)c1cn(C2CC2)c2c(Cl)c(F)c(F)cc2c1=O | 154 to 157 |
| O=C(O)c1cn2c3c(c(Cl)cc(Cl)c3c1=O)CCC2 | 300 to 304 |
| CC1(C)Cc2cccc(OCCNCc3cncc(C4=CCCC4)c3)c2O1 | 141 |
| CN1C(=O)CN=C(c2ccccc2)c2ccccc21 | 151 to 154 |
| C=C(c1ccc(C(=O)OC)cc1)c1cc2c(cc1C)C(C)(C)CCC2(C)C | 167 to 168 |
| CCOc1cc(C(C)(c2cc(OCC)c(O)c(OCC)c2)c2cc(OCC)c(O)c(OCC)c2)cc(OCC)c1O | 78 |
| CCCn1nnn(-c2cc(OCC(=O)O)c(Cl)cc2Cl)c1=O | 134 to 136 |
| CC1CCCN(c2cc3nc(C(C)(C)C)sc3cc2N=C=S)C1 (stereo unspecified) | 47 to 52 |
| c1cc(OCCCCc2nnn[nH]2)cc(OCc2ccc3ccccc3n2)c1 | 120 to 130 |
| CCOc1cc2c(c3c1OC(C)(C)C3)C(c1cccc(NC(N)=O)c1)=NC(C)(C)C2 | 202 to 205 |
| NS(=O)(=O)c1ccc(NN=C2C(=O)Nc3ccc(C(=O)NCc4ccncc4)cc32)cc1 | 211 to 215 |
| CCCn1c(=O)c2c(NC(C)=O)n[nH]c2n(Cc2ccccc2)c1=O | 108 to 110 |
| Nc1nc2c(s1)CC(CN1CC=C(c3ccccc3)CC1)CC2 (stereo unspecified) | 187 to 190 |

| SMILES | melting point [°C] |
| --- | --- |
| CC(C)Oc1cc(C(C)C)c2c(c1)S(=O)(=O)N(c1c(F)c(F)nc(F)c1F)C2=O | 130 |
| COCC(=O)Nc1cc(C(=O)OC)c(O)c2ncc(Cc3ccc(F)cc3)cc12 | 154 to 155 |
| CCOC(=O)c1c(N=Cc2cccs2)sc(N=Cc2ccc([N+](=O)[O-])s2)c1C(=O)OCC | 220 to 222 |
| CC(=O)NC[C@H]1CN(c2ccc(N3CCC4(CC3)CC4(C#N)C#N)c(F)c2)C(=O)O1 | 188 to 190 |
| CCN1CCN(Cc2ccc(-c3cc4c(NCc5cccc(Cl)c5)ncnc4[nH]3)cc2)CC1 | 241 to 243 |
| COc1cc(Nc2c(C#N)cnc3cc(/C=C/CCN4CCCC4)c(OC)cc23)c(Cl)cc1Cl | 158 to 159 |
| CN(C)C(=O)c1cnn(-c2c(Cl)cc(Cl)cc2Cl)c1N | 226 to 228 |
| CC(C)OC(=O)C1=C(c2cccc([N+](=O)[O-])c2)N2C(=O)N(C)NC2=NC1C (stereo unspecified) | 255 to 256 |
| CCCCOCCc1ccc(C2=CCC(c3ccc(Br)cc3)CC2)cc1 (stereo unspecified) | 86.5 to 89.5 |
| [N-]=[N+]=CC(=O)c1cccc(S(N)(=O)=O)c1 | 142 |
| O=C(NCCCSc1ccncc1)c1cc(Br)c(Br)s1 | 129 to 130 |
| CC(C)C[C@H](NC(=O)c1ccccc1)C(=O)N[C@@H](C(C)C)[C@@H](O)c1c(-c2ccccc2)c1=O | 150 to 154 |
| COC(=O)c1ccc(N2CCNC2=O)cc1 | > 200 |
| N#CCOC(=O)c1ccc2nc3ccc(O)cc3c(=O)n2c1 | 260 to 262 |
| C#CCc1cc(C(O)=S)cc(S(=O)(=O)Cl)c1Oc1ccccc1 | 177 to 179 |
| CC(C)c1ccc(N2Cc3ccc([N+](=O)[O-])cc3C2=O)cc1 | 225 to 227 |
| O=C(O)C(Cc1c[nH]cn1)N1C(=O)c2ccccc2C1=O (stereo unspecified) | 280 to 285 |
| CCOc1ccn2c(C)c(CCc3ccc4nc(N)oc4c3)nc2c1 | 207 to 208 |
| O=C(O)CCCc1cc2cc(Cl)ccc2n1S(=O)(=O)c1ccccn1 | 192 |
| CCOC(=O)c1cn(CC)c2c(=O)c3cc(Cl)ccc3oc2c1=O | 257 to 259 |
| Nc1nc(C2CCN(C(=O)Nc3ccccc3)CC2)c2ccccc2n1 | 178 to 180 |
| CCOC(=O)C(NC(=O)c1ccc(OC)cc1)C(C)=O (stereo unspecified) | 67 to 69 |
| O=S(=O)(c1ccccc1)c1ccc(NN=C2CCCN(Cc3ccccc3)CC2)cc1 | 142 to 146 |
| Cc1oc(C2CC2)nc1COc1ccc(CC(OC(C)C)C(=O)O)c2ccccc12 (stereo unspecified) | 129 to 130 |
| CC(=O)c1ccc(OCCNC(=O)OCc2ccccc2)cc1 | 80 to 81 |
| CCC(C)NC(=O)n1nc(Oc2c(Cl)cc(C(F)(F)F)cc2Cl)cc1C (stereo unspecified) | 73 to 75 |

| SMILES | melting point [°C] |
| --- | --- |
| CC(C)CC(Oc1c(Br)cc(-c2ccc(-c3c(Cc4ccccc4)oc4ccccc34)cc2)cc1Br)C(=O)O (stereo unspecified) | 81 to 83 |
| COc1ccc(N2CCN(c3c(C)c(C)c4c(c3C)CC(C)(CN(C)C)O4)CC2)cc1 (stereo unspecified) | 145 to 148 |
| CC(C)(C)c1ccc(C(O)CCCN2CCC(=C3c4ccccc4C=Cc4ccccc43)CC2)cc1 (stereo unspecified) | 141 to 142 |
| O=C(O)Cc1ccc(Oc2cccc(C(F)(F)F)c2)cc1 | 61 to 63 |
| CC(CS)C(=O)N(C)c1cncc(C(=O)O)c1 (stereo unspecified) | 190 to 192 |
| c1ccc(Nc2nc(OCC3CCCCC3)c3[nH]cnc3n2)cc1 | 196 to 199 |
| CC(C)(C)c1ccc(Cn2cc(C(=O)C(=O)O)c3cc(-c4ccc(Cl)cc4)ccc32)cc1 | 183 to 184 |
| CCOc1ccc2c(c1)C(Cl)(c1ccccc1Cl)C(=O)N2 (stereo unspecified) | 128 to 132 |
| CCCCc1nc(N)c(C#N)[nH]1 | 115 to 116 |
| Cc1ccc(NC(=O)c2cccc(C(F)(F)F)c2)cc1NC(=O)N(C)c1cc(Nc2ccc(N3CCN(C)CC3)cc2)ncn1 | 190 to 191 |
| CC(C)C1(C)CC(O)C2(C)CCC3c4ccc(O)cc4CCC3C12 (stereo unspecified) | 201 to 205 |
| Cc1nccn1-c1ccc(-c2cnc([C@H](Cc3ccccn3)N(C=O)c3cc4ccccc4o3)n2C)cc1 | 167 to 171 |
| CC(=O)OCc1c(-c2ccccc2)oc2c(CO)cccc2c1=O | 204 to 206 |
| CCn1ncnc1COc1nc2c(cc1C(C)(C)C)nnn2-c1ccccc1 | 161 to 163 |
| C#CCn1c2ccccc2c2cc(Br)ccc21 | 142 to 149 |
| C=C1CC2C3CCC4=CC(=O)CCC4(C)C3=CCC2(C)C1(O)C(C)=O (stereo unspecified) | 147 to 162 |
| CSCCn1c(C)nc2c(N)nc3ccccc3c21 | 193 to 195 |
| O=C(CC(NC(=O)C(F)(F)F)C(=O)O)c1ccc2c(c1)CCO2 (stereo unspecified) | 160 to 162 |
| CN(C)C(=O)CC(N)=S | 111 to 114 |
| CC(=O)Nc1ccc(SC2OC(CO)C(O)C(O)C2O)cc1 (stereo unspecified) | 160 to 163 |
| CCCCCCCCC(=O)NCc1ccc(C(=O)O)cc1 | 178 to 180 |
| Cn1cc(C(=O)Nc2cnccc2-c2ccc(Cl)cc2)c(C(F)(F)F)c1 | 178 to 180 |
| COC(=O)c1cc2ccc(OC)cc2cc1/N=C/N(C)C | 122 to 124 |
| CC(C)N(CCCCO)c1cnc(-c2ccccc2)c(-c2ccccc2)n1 | 102 to 103 |
| CCCCCCCCCCCCCCOc1ccc(O)cc1 | 81 to 82 |
| O=C(CCc1ccccc1)c1cccnc1Nc1ccc(F)cc1 | 100 to 102 |

| SMILES | melting point [°C] |
| --- | --- |
| CCNC(=S)NNC(=O)OC | 117 |
| Cc1cc(C(N)=O)c(NC(=O)CCC(F)(F)F)s1 | 151 to 153 |
| CC(=O)Nc1ccc(C(=O)N2CCOCC2)cc1[N+](=O)[O-] | 128 to 132 |
| N#Cc1cc(C(=O)O)ccc1Cl | 180 |
| COC(=O)c1nc(Br)ccc1O | 115 to 117 |
| CCOC(=O)CCCC1CCN(CCOC(c2ccccc2)c2ccc(Cl)cc2)CC1 (stereo unspecified) | 117 to 119 |
| NS(=O)(=O)c1cccc(NC(=O)c2cnn3c(C(F)F)cc(-c4ccc(C(F)(F)F)c(Cl)c4)nc23)c1 | 272 |
| CNc1nc(NC)c2ncn(COC(CO)CO)c2n1 | 198 |
| CCCCOc1ccc(S(=O)(=O)C2(C(=O)NO)CCN(Cc3ccc(OCCN4CCCCC4)cc3)CC2)cc1 | 155 |
| CCc1cccc2oc(C(=O)Nc3ccc(-c4ccc(S(=O)(=O)NC(C(=O)OC)C(C)C)cc4)cc3)c(C)c12 (stereo unspecified) | 183 to 185 |
| Cc1c(C(N)=O)c2ccccc2n2c(N3CCCC3)nc(-c3noc(C4CC4)n3)c12 | 206 to 209 |
| CC(C)[C@@H](CNC(=O)/C=C/c1ccccc1)NC(=O)OC(C)(C)C | 149 to 151 |
| CCCCc1oc2ccccc2c1Cc1ccc(O)cc1 | 67 to 70 |
| COC(=O)c1sc(N)cc1NC(C)=O | 162 to 163 |
| Cc1cn(C)c2cc(NC(=O)c3ccc(C(C)(C)O)cc3)ncc12 | 196 to 197 |
| COC1=CC(=O)C(O)=C(CCCCCCC/C=C\CCCCCCCC2=C(O)C(=O)C(C)=C(OC)C2=O)C1=O | 88 to 90 |
| FC(F)(F)c1cccc(N=c2ccn3ccccc3c2)c1 | 134 to 135 |
| O=S1C(Cl)=C(Cl)CN1C1CCCCC1 (stereo unspecified) | 115 to 116 |
| N[C@H](Cc1ccc(OC(=O)OCc2ccccc2)cc1)C(=O)O | 208 to 210 |
| O=C(O)c1ccc(OCC(O)CO)cc1O (stereo unspecified) | 151 to 153 |
| O=C(O)C(=O)CC(=O)c1cn(Cc2ccc3ccccc3n2)c2ccccc2c1=O | > 300 |
| O=C(NCCSCc1cccc(Cl)c1)c1c(Br)cccc1Br | 55 to 57 |
| Cn1cnc2nc(NC(=O)c3ccccc3)nn2c1=S | 273 to 276 |
